Measured values reported in patent publication US20050288227A1, “Use of thioredoxin measurements for diagnostics and treatments” (priority 2002, published 2005).
Read-outs that look alike come from different tables or passages of the source.

How the values were obtained:
HDAC = conditions: literature statement, cited from earlier work
[1] = tested on: non-small cell lung cancer; conditions: Phase II, cited from earlier work
[2] = tested on: metastatic renal cell carcinoma; conditions: Phase II; cited from earlier work
[3] = phase I; cited from earlier work
[4] = tested on: WI38 (human lung fibroblast); test: Cell growth (cell number, trypan blue / Guava); type: cell-based; conditions: WI38 cells, FIG. 2B
Text: (§1) HeLa (human cervical carcinoma), WI38 (human lung fibroblast), WI38-VA13 (SV-40 transformed human lung fibroblast), MCF-7 (human breast adenocarcinoma), T-24 human bladder transitional cell carcinoma), and LNCAP (human prostate adenocarcinoma) were obtained from the American type culture collection and cultured in accordance with the instructions. ARP-1 (human multiple myeloma) was generously provided by Dr. J. Hardoc (Arkansas Cancer Research Center, Little Rock) and cultured as indicated by the source.
(§2) Cells were harvested by trypsinization. Cell number and viability were measured by trypan blue dye exclusion and by Guava PCA-96 via count flex reagent according to the manufacturer's instruction (Guava).

[5] = tested on: WI38-VA13 (SV-40 transformed human lung fibroblast); test: Cell growth (cell number, trypan blue / Guava); type: cell-based; conditions: VA13 cells, FIG. 2A
Text: as §1, §2

[6] = tested on: WI38 (human lung fibroblast); test: SAHA-induced apoptosis / viability; type: cell-based; conditions: normal fibroblast WI38 cells, FIGS. 2-3
Text: as §1, §2

[7] = tested on: WI38-VA13 (SV-40 transformed human lung fibroblast); test: SAHA-induced apoptosis / viability; type: cell-based
Text: as §1, §2

TRX [8] = test: Northern blot of TRX mRNA in WI38; type: cell-based, human; conditions: WI38 cultured with 5 μmol/l SAHA, FIG. 4A
Experimental: Cells were cultured and recovered by centrifugation and RNA was prepared as described (Richon, V. M., et al., 1996, Proc. Natl. Acad. Sci. USA. 93:5705-5708). Total RNA (10 μg) was analyzed by northern blotting using a ^32P-labeled 1.1-kb TBP-2 coding region cDNA probe or a 500 bp cDNA probe for human TRX (Butler et al., 2002, Proc. Natl. Acad. Sci. USA 99:11700-11705). Loading was determined using a ^32P labeled 50-mer 18s rRNA oligonucleotide.

TRX [9] = test: Western blot of TRX protein in WI38; type: cell-based, human; conditions: WI38 cultured with 5 μmol/l SAHA, FIG. 4B
Experimental: (§3) Typically, whole cell lysates were prepared using a buffer (50 mM Tris-HCL pH 8, 300 mM NaCl, 5 mM EDTA, 0.5% NP-40, inhibitor pellet from Roche). Next, 10-25 μg of cell extract were subjected to standard SDS-poly acrylamide gel electrophoresis using 10%, 15%, and 18% criterion gels (Bio-Rad). After transferring to PVDF membrane (Amersham Biosciences), the membranes were blocked with 5% BSA PBS-Tween (0.1%). The membranes were then incubated with specific primary antibody and horseradish peroxidase-labeled secondary antibody. Immunoprecipitation was based on the protocol of Santa Cruz Biotechnology. Briefly, 100-500 μg of total cellular protein were applied and incubated with protein agarose (Ausubel, F. M., et al. Current Protocols in Molecular Biology. 10.16 John Wiley & Sons. 2001).
(§4) TBP-2 antiserum was generated in rabbits (Pocono Farms) using following sequence (peptide) CYM DVI PED HRL ESP (SEQ ID NO:7). Anti-TRX was prepared in the laboratory of Dr. Arne Holmgren (Karolinska institute) as a goat polyclonal antibody. Anti-tubulin was purchased from Oncogene.
(§5) TBP-2 has been identified as a protein that associates with the active (reduced) form of TRX, a dithiol-reducing redox regulatory protein (Nishiyama, A., et al., 1999, J. Biol. Chem. 274, 21645-21650). Binding of TBP-2 to TRX both inhibits the thiol-reducing activity and reduces the level of expression of TRX. […]

TRX [10] = test: Western blot of TRX protein in VA13; type: cell-based, human; conditions: VA13 cultured with 5 μmol/l SAHA, FIG. 4B
Experimental: as §3, §4, §5

[11] = tested on: acetylated histones in PMN cells; conditions: following a single oral dose; cited from earlier work
[12] = tested on: solid and hematological tumors; conditions: cited from earlier work
tumor growth = conditions: animals; cited from earlier work
[13] = oral formulation of PB; cited from earlier work
[14] = tested on: acute myelogenous leukemia; conditions: a patient with acute myelogenous leukemia; cited from earlier work

CC(=O)Nc1ccc(C(=O)Nc2ccccc2N)cc1 [CI-994]
HDAC inhibitory potency (level of activity) (HDAC): less potent than the corresponding hydroxamates and cyclic tetrapeptides | patients having a partial response to therapy ([1]; 32 patients): 7% | patients having stable disease for over 8 weeks [1]: 28% | patients with stable disease for greater than 8 weeks [2]: 58%

O=C(/C=C/c1ccc(CN(CCO)CCc2c[nH]c3ccccc23)cc1)NO [LAQ824]
HDAC inhibitory potency (level of activity) (HDAC): nanomolar inhibitor

Nc1ccccc1NC(=O)c1ccc(CNC(=O)OCc2cccnc2)cc1 [MS-275, N-(2-aminophenyl)-4-[N-(pyridin-3-yl-methoxycarbonyl)aminomethyl] benzamide]
HDAC inhibitory potency (level of activity) (HDAC): less potent than the corresponding hydroxamates and cyclic tetrapeptides | half-life [3]: longer than expected

O=C(CCCCCCC(=O)Nc1ccccc1)NO [SAHA, suberoylanilide hydroxamic acid]
SAHA dose that induces growth arrest [4]: ≥ 2.5 µM | SAHA dose that induces growth arrest [5]: ≥ 2.5 µM | apoptosis [6]: little or no apoptosis | growth arrest and apoptosis ([7]; transformed VA13, FIGS. 2-3): induced growth arrest and apoptosis | SAHA concentration sufficient to induce significant apoptosis ([7]; transformed cells, after 24-48 hours of SAHA treatment, FIG. 3A): 1.25 to 2.5 µmol/L | TRX mRNA expression (TRX [8]): increased significantly | TRX protein levels (TRX [9]): increased significantly | TRX protein levels (TRX [10]): quickly decrease to undetectable levels | persistence of accumulation of acetylated histones in PMN cells [11]: up to 10 hrs | drug related deaths ([12]; oral SAHA, patients): no drug related deaths | longest duration of therapy (durable responses) ([12]; oral SAHA, patients): over 18 months | oral bioavailability ([12]; oral formulation of SAHA): good oral bioavailibity | toxicity to the animal (tumor growth): no toxicity

C/C=C1\NC(=O)[C@H]2CSSCC/C=C/[C@H](CC(=O)N[C@H](C(C)C)C(=O)N2)OC(=O)[C@H](C(C)C)NC1=O [depsipeptide]
HDAC inhibitory potency (level of activity) (HDAC): active at nanomolar levels | HDAC inhibitory potency (level of activity) (HDAC; listed as Depsipeptide): inhibits HDACs at nanomolar concentrations

O=C(O)CCCc1ccccc1 [phenyl butyrate, Phenyl Butyrate]
HDAC inhibitory potency (level of activity) (HDAC): millimolar levels of activity | biologic active plasma concentrations reached [13]: 0.5 mM | oral bioavailability [13]: good bioavailability

CCCC(CCC)C(=O)O [valproic acid, Valproic Acid]
HDAC inhibitory potency (level of activity) (HDAC): millimolar levels of activity | clinical response [14]: transient partial remission
